From patent US6632621B1, “G protein-coupled receptor-like receptors and modulators thereof” (priority 1999, dated 2003)
Where two headings read alike, the source gives them in different places. *1 amine or outer side, *2 acyl side, *3 side chain or, on linkers, in order; H or OH if unused. Where no end group is shown, it is not given here. [ ]: non-standard residue; d: D form. Tyr(125I) = 125I-iodinated Tyr, O=C([C@H](Cc1ccc(O[*:3])c([125I])c1)N[*:1])[*:2]; Tyr(3-I) = N[C@@H](Cc1ccc(O)c(I)c1)C(=O)O

What was measured:
CEGPCR4 receptor [1] = biological target: T1, CEGPCR4 receptor (Caenorhabditis elegans, UniProt A0A078BTK0); assay: Flp18 binding assay: [125I]YDVPGVLRFamide binding and competition on CEGPCR4/CHO membranes; parameters: species or system C. elegans; details: in words
T1 sequence (A0A078BTK0 1-376): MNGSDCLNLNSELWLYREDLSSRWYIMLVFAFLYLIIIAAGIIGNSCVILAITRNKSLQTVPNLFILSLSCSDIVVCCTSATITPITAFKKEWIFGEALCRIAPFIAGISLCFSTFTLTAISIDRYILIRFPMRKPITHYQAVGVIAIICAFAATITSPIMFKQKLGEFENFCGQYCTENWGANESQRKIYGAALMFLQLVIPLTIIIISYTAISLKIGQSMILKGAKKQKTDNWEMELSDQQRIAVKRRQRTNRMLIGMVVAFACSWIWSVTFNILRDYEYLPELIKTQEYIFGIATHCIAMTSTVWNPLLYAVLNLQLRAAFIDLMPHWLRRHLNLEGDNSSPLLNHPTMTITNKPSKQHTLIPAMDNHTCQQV
Description: A peptide ligand screening assay that measures ligand binding to a suitable GPCR-like receptor according to the invention is exemplified using a modified C. elegans Flp18 peptide ligand.
Membranes for use in the assay are derived from cells stably transfected with a GPCR-like receptor expression construct. The transfected cells are grown in 10 cm dishes to subconfluence, rinsed once with 5 ml of ice-cold Ca^2+/Mg^2+—free PBS, and scraped into 5 ml of the same buffer. Cells are pelleted by centrifugation (500×g, 5 minutes), resuspended in 25 mM Tris, pH 7.5, 5 mM EDTA, 5 mM EDTA, pH 7.5 (TEE), and frozen in liquid nitrogen. After thawing, the cells are homogenized using a Dounce homogenizer (one ml TEE per plate of cells), and centrifuged at 1,000×g for 5 minutes to remove nuclei and unbroken cells.
The homogenate supernatant is centrifuged at 20,000×g for 20 minutes to isolate the membrane fraction, and the membrane pellet is washed once with TEE and resuspended in binding buffer (20 mM HEPES, pH 7.5, 150 mM NaCl, 10 mM MgCl2, 1 mM EDTA). […]
The peptide ligand screening assay is facilitated by use of 96-well plates Millipore Multiscreen® filtration plates (FB opaque 1.0 μM glass fiber type B, catalog number MAFBNOB50). […] The following day, the plate is counted in a Microbeta® scintillation counter.

CEGPCR16 receptor [2] = biological target: T2, CEGPCR16 receptor (Caenorhabditis elegans, UniProt Q9XXU4); assay: [35S]GTPγS binding assay, CEGPCR16 expressed in CHO cells; assay type: biochemical, C. elegans; details: membranes from cells transfected and maintained at 37° C.
T2 sequence (Q9XXU4 1-365): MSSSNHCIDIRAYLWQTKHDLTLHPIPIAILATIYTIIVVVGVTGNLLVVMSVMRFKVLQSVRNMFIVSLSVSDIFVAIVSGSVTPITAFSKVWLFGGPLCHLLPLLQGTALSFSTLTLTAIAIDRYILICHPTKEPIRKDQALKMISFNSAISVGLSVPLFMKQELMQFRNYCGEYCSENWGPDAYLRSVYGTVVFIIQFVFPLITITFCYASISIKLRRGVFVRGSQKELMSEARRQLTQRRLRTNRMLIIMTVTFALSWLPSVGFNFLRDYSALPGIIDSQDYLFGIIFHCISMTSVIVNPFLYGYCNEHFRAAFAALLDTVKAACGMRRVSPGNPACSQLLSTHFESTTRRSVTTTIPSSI

CEGPCR16 receptor [3] = biological target: T2, CEGPCR16 receptor; assay: as above; assay type: biochemical, C. elegans
Description: (§1) Recombinant pCR3.1 clones encoding invertebrate GPCR-like receptors were transformed into wild-type CHO-K1 cells and functional expression was achieved using a temperature-shift incubation protocol. The CHO-K1 cells were cultured at 37° C. in a humidified atmosphere of 5% CO2 in air in DMEM medium supplemented with 10% heat-inactivated fetal bovine serum (i.e., FBS), 10 μg/ml gentamicin, and 0.1 mM nonessential amino acids to give complete DMEM medium. Additionally, for incubations at temperatures lower than 37° C., the medium was fortified with 10 mM HEPES (pH 7.4). Cells were transfected with recombinant pCR3.1 clones containing GPCR-like receptor DNAs, using LipofectAMINE PLUS™, essentially according to the manufacturer's instructions. […] In separate plastic tubes, PLUS (20 μl/plate; Life Technologies) was added to 0.75 ml/plate of recombinant plasmid DNA in OptiMEM (5 μg/plate; Gibco/BRL—Life Technologies), mixed and incubated at room temperature for 15 minutes. Separately, LipofectAMINE (30 μl/plate) was mixed with 0.75 ml OptiMEM and added to the pre-complexed DNA/PLUS mixture and incubated at room temperature for 15 minutes. The culture medium was then replaced with serum-free transfection medium (DMEM, 5 ml/plate). The DNA-PLUS-LipofectAMINE complex was then added to the plates (1.5 ml/plate) and mixed gently into the medium, followed by a 3 hour incubation at 37° C. in 5% CO2. At this time, the medium was supplemented with complete DMEM medium containing 20% FBS (6.5 ml/plate) and incubation was continued at 37° C. in 5% CO2. After a total of 24 hours at 37° C. in 5% CO2, the medium was replaced with complete DMEM medium fortified with 10 mM HEPES (10 ml/plate) and the cells were moved to an incubator maintained at 28-30° C. in a humidified atmosphere of 5% CO2 in air. The incubation continued for an additional 24 hours, typically at the lower temperature indicated above. A plasmid encoding Green Fluorescent Protein (i.e., GFP, 4 μg/plate) was used for transient GFP expression in CHO-K1 cells to estimate the transfection yields under the same conditions as used for GPCR-like receptor polynucleotides.
(§2) To assess expression, membranes were prepared from transfected CHO-K1 cells. Transfected cells were washed once with ice-cold Dulbecco's phosphate-buffered saline (i.e., PBS), 5 ml per 10 cm plate, and the cells were scraped into 5 ml of the same buffer. Cell suspensions from multiple plates were combined and centrifuged at 500×g for 10 minutes at 4° C. The cell pellet was reconstituted in ice-cold TEE (25 mM Tris, pH 7.4, 5 mM EGTA, 5 mM EDTA). Convenient aliquots were snap-frozen in liquid nitrogen and stored at −70° C. After thawing, the cells were homogenized and centrifuged at 500×g for 5 minutes at 4° C. to pellet nuclei and unbroken cells. Tile supernatant was centrifuged at 47,000×g for 30 minutes at 4° C. The membrane pellet was washed once with TEE, resuspended in 20 mM HEPES, pH 7.4, 100 mM NaCl, 10 mM MgCl2, 1 mM EDTA (assay buffer), distributed into aliquots of 0.5-1.0 ml, and frozen in liquid nitrogen. Membrane aliquots were stored at −70° C. Membrane protein concentration was determined using the BCA Protein Assay Reagent from Pierce (Rockford, Ill.), with bovine serum albumin (i.e., BSA) as a standard.
(§3) Aliquots of cell membranes prepared as described above and stored at −70° C. were thawed, homogenized, and diluted into buffer containing 20 mM HEPES, pH 7.4, 10 mM MgCl2, 1 mM EDTA, and 100 mM NaCl at a concentration of 10-50 μg/ml. Reaction mixtures were prepared in 96-well polypropylene plate, Nunc. Twenty microliters of a 10× putative modulator compound (including but not limited to potential peptide ligands) solution or a water control (20 μl), 18.2 µM GDP (0.11 ml, 10 μM final concentration), and a membrane preparation were mixed and placed on ice. The modulator/ligand-GDP-membrane mixtures were incubated for 20 minutes at room temperature on a shaking platform and then placed on ice.

CEGPCR12c = assay: [35S]GTPγS binding assay, membranes of CHO cells transfected with CEGPCR12c; assay type: biochemical, C. elegans
CEGPCR4 receptor [4] = biological target: T1, CEGPCR4 receptor; assay: [35S]GTPγS binding assay, membranes of CHO cells transfected with CEGPCR4; assay type: biochemical, C. elegans
Description: Recombinant pCR3.1 clones encoding invertebrate GPCR-like receptors were transformed into wild-type CHO-K1 cells and functional expression was achieved using a temperature-shift incubation protocol. The CHO-K1 cells were cultured at 37° C. in a humidified atmosphere of 5% CO2 in air in DMEM medium supplemented with 10% heat-inactivated fetal bovine serum (i.e., FBS), 10 μg/ml gentamicin, and 0.1 mM nonessential amino acids to give complete DMEM medium. Additionally, for incubations at temperatures lower than 37° C., the medium was fortified with 10 mM HEPES (pH 7.4). Cells were transfected with recombinant pCR3.1 clones containing GPCR-like receptor DNAs, using LipofectAMINE PLUS™, essentially according to the manufacturer's instructions. […] In separate plastic tubes, PLUS (20 μl/plate; Life Technologies) was added to 0.75 ml/plate of recombinant plasmid DNA in OptiMEM (5 μg/plate; Gibco/BRL—Life Technologies), mixed and incubated at room temperature for 15 minutes. Separately, LipofectAMINE (30 μl/plate) was mixed with 0.75 ml OptiMEM and added to the pre-complexed DNA/PLUS mixture and incubated at room temperature for 15 minutes. […]
To assess expression, membranes were prepared from transfected CHO-K1 cells. […] Membrane protein concentration was determined using the BCA Protein Assay Reagent from Pierce (Rockford, Ill.), with bovine serum albumin (i.e., BSA) as a standard. […]

CEGPCR12h receptor = biological target: T3, CEGPCR12h receptor (Caenorhabditis elegans, UniProt Q20275); assay: [35S]GTPγS binding assay, CEGPCR12h expressed in CHO cells; assay type: biochemical, C. elegans
T3 sequence (Q20275 1-402): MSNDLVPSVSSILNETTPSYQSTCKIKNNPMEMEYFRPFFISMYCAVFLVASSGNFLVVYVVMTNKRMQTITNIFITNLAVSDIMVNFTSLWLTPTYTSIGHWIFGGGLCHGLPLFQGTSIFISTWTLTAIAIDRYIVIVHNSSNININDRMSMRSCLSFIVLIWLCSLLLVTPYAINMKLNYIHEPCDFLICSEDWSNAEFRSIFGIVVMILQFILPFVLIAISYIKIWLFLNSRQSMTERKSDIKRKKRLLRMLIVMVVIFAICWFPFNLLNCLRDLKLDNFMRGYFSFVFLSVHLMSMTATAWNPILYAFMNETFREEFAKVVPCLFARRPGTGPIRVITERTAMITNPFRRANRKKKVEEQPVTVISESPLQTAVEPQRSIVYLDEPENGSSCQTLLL
Description: as §1, §2, §3

CEGPCR5 [5] = biological target: T4, CEGPCR5 (Caenorhabditis elegans, UniProt Q18179); assay: [35S]GTPγS binding assay, CEGPCR5 expressed in CHO cells; assay type: biochemical, C. elegans; details: membranes from cells transfected and maintained at 37° C.
T4 sequence (Q18179 1-402): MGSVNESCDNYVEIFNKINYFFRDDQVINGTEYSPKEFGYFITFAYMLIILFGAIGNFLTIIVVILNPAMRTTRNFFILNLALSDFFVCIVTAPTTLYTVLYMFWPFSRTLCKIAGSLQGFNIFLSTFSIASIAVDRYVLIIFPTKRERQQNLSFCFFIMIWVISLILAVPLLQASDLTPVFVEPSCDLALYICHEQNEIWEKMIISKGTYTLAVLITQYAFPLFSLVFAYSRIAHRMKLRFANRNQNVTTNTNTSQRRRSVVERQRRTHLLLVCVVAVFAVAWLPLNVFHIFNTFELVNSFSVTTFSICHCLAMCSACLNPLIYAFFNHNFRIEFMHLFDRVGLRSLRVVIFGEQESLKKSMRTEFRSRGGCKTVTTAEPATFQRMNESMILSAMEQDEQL

CEGPCR7 receptor = biological target: T5, CEGPCR7 receptor (Caenorhabditis elegans, UniProt Q18534); assay: [35S]GTPγS binding assay, membranes of CHO cells transfected with CEGPCR7; assay type: biochemical, C. elegans
T5 construct: Each of the 22 putative GPCR-like receptor clones appeared to contain a full-length coding region; expressed in transfected cells; host or cells: CHO-K1, transient, pCR3.1 clone, 37 to 28 C temperature shift
T5 sequence (Q18534 1-457): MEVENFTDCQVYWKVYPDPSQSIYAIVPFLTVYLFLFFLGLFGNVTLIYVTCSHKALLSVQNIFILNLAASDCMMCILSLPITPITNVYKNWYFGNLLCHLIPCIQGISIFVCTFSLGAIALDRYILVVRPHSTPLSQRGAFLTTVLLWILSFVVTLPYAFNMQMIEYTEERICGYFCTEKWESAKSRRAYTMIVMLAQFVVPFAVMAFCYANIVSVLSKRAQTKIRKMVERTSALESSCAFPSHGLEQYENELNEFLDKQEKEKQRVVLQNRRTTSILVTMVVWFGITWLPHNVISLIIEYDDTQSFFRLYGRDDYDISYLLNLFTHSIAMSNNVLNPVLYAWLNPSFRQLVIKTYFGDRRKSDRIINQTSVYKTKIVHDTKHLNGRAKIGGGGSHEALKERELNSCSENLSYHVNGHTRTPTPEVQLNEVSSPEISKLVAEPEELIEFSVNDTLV
Description: as §1, §2
Aliquots of cell membranes prepared as described above and stored at −70° C. were thawed, homogenized, and diluted into buffer containing 20 mM HEPES, pH 7.4, 10 mM MgCl2, 1 mM EDTA, and 100 mM NaCl at a concentration of 10-50 μg/ml.

CEGPCR5 [6] = biological target: T4, CEGPCR5; assay: [35S]GTPγS binding assay, CEGPCR5 expressed in CHO cells; assay type: biochemical, C. elegans
human D2 receptor = human D2 receptor (Homo sapiens, UniProt P14416); details: 37° C. versus temperature-shift transfection protocol
Description: as §3

[7] = biological target: T6, CEGPCR7 (C. elegans), Q18534; assay: cell-based or functional assay
T6 chain: T5 sequence (Q18534 1-457)

CEGPCR4 = biological target: T7, CEGPCR4 (C. elegans); assay: radioligand binding to CEGPCR4/CHO membranes
T7 construct: Expressed in CHO cells; also called CEGPCR4 receptor; CEGPCR4/CHO membranes
T7 chain: T1 sequence (A0A078BTK0 1-376)

[8] = temperature shift to 28° C. 24 hours after transfection
[9] = membranes from cells transfected and maintained at 37° C.

human D2 receptor, sequence (P14416 whole entry): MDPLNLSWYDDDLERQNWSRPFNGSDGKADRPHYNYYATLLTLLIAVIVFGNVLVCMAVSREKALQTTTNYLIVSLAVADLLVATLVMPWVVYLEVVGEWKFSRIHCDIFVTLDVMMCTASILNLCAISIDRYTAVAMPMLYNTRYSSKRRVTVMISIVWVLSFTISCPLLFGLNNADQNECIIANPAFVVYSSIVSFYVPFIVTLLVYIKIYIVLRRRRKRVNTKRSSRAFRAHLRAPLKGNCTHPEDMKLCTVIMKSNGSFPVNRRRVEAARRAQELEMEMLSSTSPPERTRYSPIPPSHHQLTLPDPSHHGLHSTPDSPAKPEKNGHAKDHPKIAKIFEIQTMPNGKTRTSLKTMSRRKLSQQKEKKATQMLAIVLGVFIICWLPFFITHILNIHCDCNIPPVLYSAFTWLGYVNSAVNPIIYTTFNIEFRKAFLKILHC

[^125I-Y]DVPGVLRF-NH2 ([Tyr(125I)]DVPGVLRF-NH2)
Kd, binding to the CEGPCR4/CHO membranes (CEGPCR4 receptor [1]): subnanomolar range

ASEDALFGTMRF-NH2 [ASEDALFGTMRF-NH2]
receptor activation by matched ligand (CEGPCR16 receptor [2]): not detectably activated | EC50 (CEGPCR16 receptor [3]; Table 10, one range for the group of peptides, read-out: EC50 range): 60 to 300 nM | ligand-induced [35S]GTPγS binding (CEGPCR16 receptor [3]; [8]): significant stimulation

PDVDHVFLRF-NH2 [PDVDHVFLRF-NH2]
receptor activation by matched ligand (CEGPCR12c; [9]): not detectably activated | ligand-induced [35S]GTPγS binding (CEGPCR12c; [8]): significant stimulation | receptor activation by matched ligand (CEGPCR4 receptor [4]; [9]): not detectably activated | ligand-induced [35S]GTPγS binding (CEGPCR4 receptor [4]; [8]): significant stimulation | EC50 (CEGPCR12h receptor; EC50): 330 nM | EC50 (CEGPCR12h receptor; EC50 range, Table 11, one range for the group, results apply to all CEGPCR12 isoforms): 300 to 500 nM

H-GLGPRPLRF-NH2 [GLGPRPLRF-NH2]
receptor activation by matched ligand (CEGPCR5 [5]): not detectably activated | activity at single concentration (CEGPCR12h receptor; Table 11, peptides tested at 5 μM): active at | EC50 (CEGPCR7 receptor; EC50, single values): 207 nM | EC50 (CEGPCR7 receptor; EC50 range, Table 7, one range for the group of peptides): 200 to 250 nM | ligand-induced [35S]GTPγS binding, fold elevation in activity (CEGPCR7 receptor; cooling (28° C.) protocol): 2.6 fold | EC50 (CEGPCR5 [6]): 1 to 10 nM | EC50 (CEGPCR5 [6]; in words): low nanomolar range | ligand-induced [35S]GTPγS binding (CEGPCR5 [6]; [8]): significant stimulation

NCCc1ccc(O)c(O)c1 [dopamine]
responses of the receptor to its ligand (human D2 receptor): the same regardless of the transfection protocol used

GLGPRPLRF-NH2 […-NH2 (AF9)]
AF9-induced [35S]GTPγS binding, constant 37° C. (third experiment) [7]: 1.4 fold

B1: 3-Iodo-Y-DVPGVLRF-NH2 (peptide)
peptide: [Tyr(3-I)]DVPGVLRF-NH2
modifications: N-terminus assumed
SMILES: CC(C)C[C@H](NC(=O)[C@@H](NC(=O)CNC(=O)[C@@H]1CCCN1C(=O)[C@@H](NC(=O)[C@H](CC(=O)O)NC(=O)[C@@H](N)Cc1ccc(O)c(I)c1)C(C)C)C(C)C)C(=O)N[C@@H](CCCNC(=N)N)C(=O)N[C@@H](Cc1ccccc1)C(N)=O
notes: Synthetic flp18 analog; the radioiodinated form is treated as the same molecule
Kd (CEGPCR4): < 1 nM
